Assay results reported in patent publication US9598365B2, “Method for synthesizing cycloalkanyl[b]indoles, cycloalkanyl[b]benzofurans, cycloalkanyl[b]benzothiophenes, compounds and methods of use” (Trustees of Dartmouth College, priority 2012, dated 2017).

Key:
Type in all cases: cell-based
[1] = tested on: HCT116; test: K-Ras Wnt synthetic lethal, HCT116 KrasSL; conditions: Homo sapiens, HCT-116, read-out: HCT116 KrasSL % Inhibit
Text: (§1) Selected compounds of this invention were screened for K-Ras Wnt synthetic lethal, anti-angiogenic activity, Wnt pathway modulatory activity, insulin and GLP-1 secretion modulatory activity, GPR119 receptor agonist activity, mGlu2R antagonist activity, CGRP receptor antagonist activity, Apelin receptor agonist activity and hexokinase 2 inhibitory activity using the PD^2 and TD^2 Screening Panel (Eli Lilly & Company). See Lee, et al. (2011) J. Biomol. Screen. 16:588-602.

[2] = tested on: RKO; test: K-Ras Wnt synthetic lethal, RKO KrasSL; conditions: Homo sapiens, average of three independent experiments, read-out: RKO KrasSL % Inhibit
Text: as §1

[3] = tested on: Wnt Pathway; test: Wnt pathway modulatory activity, Osteo bCat
Text: as §1

[4] = target: T1, hApelin (Homo sapiens, UniProt P35414); test: Apelin receptor agonist, hApelin agonism; conditions: @ 30 μM
T1 sequence (P35414 1-380): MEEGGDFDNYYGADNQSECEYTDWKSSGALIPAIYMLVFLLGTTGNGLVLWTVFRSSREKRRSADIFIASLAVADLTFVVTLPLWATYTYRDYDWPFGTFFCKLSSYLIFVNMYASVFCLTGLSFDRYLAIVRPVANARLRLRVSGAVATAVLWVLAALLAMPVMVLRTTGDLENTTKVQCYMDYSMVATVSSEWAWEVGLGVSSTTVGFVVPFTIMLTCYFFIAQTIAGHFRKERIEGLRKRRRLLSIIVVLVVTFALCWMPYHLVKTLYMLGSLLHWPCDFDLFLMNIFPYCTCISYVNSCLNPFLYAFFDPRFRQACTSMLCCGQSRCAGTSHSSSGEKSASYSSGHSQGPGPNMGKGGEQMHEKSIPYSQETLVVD
Text: as §1

[5] = tested on: Insulin Secretion; test: Insulin secretion, Secretion Hi Gluc
Text: as §1

Question: Which inhibition at 0.2 µM ([1]; @ 0.2 μM) does the source give for `CC1(C)c2c([nH]c3ccc(Cl)cc23)C2C=CC1C2` (centres unmarked) [Compound 11s] here?
Answer: 2.3%

Question: And the inhibition at 2 µM ([1]; @ 2 μM)?
Answer: -38%

Question: What about the inhibition at 20 µM ([1]; @ 20 μM) of the same molecule?
Answer: 96.4%

Question: What about the inhibition at 0.2 µM ([2]; @ 0.2 μM) of the same molecule?
Answer: -2.8%

Question: And the inhibition at 2 µM ([2]; @ 2 μM)?
Answer: 14.4%

Question: What about the inhibition at 20 µM ([2]; @ 20 μM) of the same molecule?
Answer: 102%

Question: And the “Osteo bCat % Stimulation” value ([3]; @ 2 μM)?
Answer: 1.3%

Question: And the “Osteo bCat % Stimulation” value ([3]; @ 10 μM)?
Answer: 9.3%

Question: And the “hApelin agonism % Stimulation” value [4]?
Answer: −46.2%

Question: What about the “Secretion Hi Gluc % Stimulation” value ([5]; @ 2 μM) of the same molecule?
Answer: −1.2%

Question: What about the “Secretion Hi Gluc % Stimulation” value ([5]; @ 10 μM) of the same molecule?
Answer: 15.8%
